Source: patent publication US20240140941A1, “DERIVATIVE OF 2,5-DIKETOPIPERAZINE COMPOUND, AND PREPARATION METHOD THEREFOR, PHARMACEUTICAL COMPOSITION THEREOF AND USE THEREOF” (DALIAN WZ PROBIOTICS AD HEALTH CO., LTD, priority 2020, published 2024)
Counter-ions that a name gives are not always drawn. Like-named read-outs stand apart in the source and are kept apart here.

Columns and labels:
Assay type in all cases: cell-based, human
[1] = tested on: BxPC-3; assay: Inhibition test on cell proliferation (MTT), BxPC-3; conditions: read-out: IC50 (nM) BxPC-3
Experimental: (§1) Tumor cells (NCI-H460, BxPC-3, HT-29, HCC-LM3) in the logarithmic growth phase were digested, centrifuged, and the supernatants were removed. Cells were resuspended by adding fresh culture medium, and counted using a cell counting plate. 100 μL of culture medium (containing cells) was added to a 96-well plate according to the standard of 2000 to 6000 cells per well and incubated in an incubator (37° C., 5% CO2) for 24 hours. After the cells were completely adhered to the wall, the test sample and Plinabulin were diluted to different concentrations using fresh culture medium, and 4 wells were set for each concentration. After 72 hours of drug treatment, the culture medium was removed, and 20 μL of MTT at a concentration of 5 mg/mL was added to each well. After 3-4 hours in the incubator, the MTT was discarded, and 100 μL of DMSO was added to each well, and placed in a 96-well plate shaker to completely dissolve the purple formazan. Subsequently, the absorbance (OD value) was detected at a wavelength of 490 nm using a microplate reader. The experiment also required setting up zero-setting wells (blank culture medium, MTT, DMSO). Cell inhibition rate=1−(OD value of drug-dosed group−OD value of zero-setting group)/(OD value of blank group−OD value of zero-setting group)×100%.

[2] = tested on: NCI-H460; assay: Inhibition test on cell proliferation (MTT), NCI-H460
Experimental: as §1

[3] = tested on: HCC-LM3; assay: Inhibition test on cell proliferation (MTT), HCC-LM3; conditions: read-out: IC50 (nM) HCC-LM3
Experimental: as §1

[4] = tested on: HT-29; assay: Inhibition test on cell proliferation (MTT), HT-29; conditions: Homo sapiens, HT-29, 72 h, 72 hours of drug treatment
Experimental: as §1

[5] = Homo sapiens, BXPC-3, 72 h, 72 hours of drug treatment, MTT
[6] = Homo sapiens, NCI-H460, 72 h, 72 hours of drug treatment, MTT, read-out: IC50 (nM) NCI-H460
[7] = Homo sapiens, HCCLM3, 72 h, 72 hours of drug treatment, MTT
[8] = 72 hours of drug treatment, MTT, mesylate
[9] = Homo sapiens, NCI-H460, 72 h, read-out: IC50 (nM) NCI-H460, 72 hours of drug treatment, MTT

CC(=O)N1CCN(CCCn2cnc(/C=c3\[nH]c(=O)/c(=C/c4cccc(F)c4)[nH]c3=O)c2C(C)C)CC1 [PLN-2-64, (3Z,6Z)-3-(3-Fluorophenyl)methylene-6-(5-isopropyl-1-(3-(4-(acetyl)piperazinyl)propylimidazol-4-yl)methylene)piperazine-2,5-dione]
IC50 [1, 5]: 7.7 ± 0.39 nM | IC50 [2, 6]: 18.5 ± 0.3 nM | IC50 [3, 7]: 26.1 ± 2.14 nM

CC(C)c1c(/C=c2\[nH]c(=O)/c(=C/c3cccc(C(=O)c4ccc(F)cc4)c3)[nH]c2=O)ncn1CCCN1CCNCC1 [PLN-2-16, (3Z,6Z)-3-(3-(p-fluorobenzoyl)phenyl)methylene-6-((5-isopropyl-1-(3-piperazinyl)propylimidazol-4-yl)methylene)piperazine-2,5-dione]
IC50 [1, 5]: 5.92 ± 3.74 nM | IC50 [4]: 11.1 ± 1.87 nM | IC50 [2, 6]: 25.6 ± 9.64 nM

CC(CN1CCOCC1)Cn1cnc(/C=c2\[nH]c(=O)/c(=C/c3cccc(F)c3)[nH]c2=O)c1C(C)C (stereo not drawn) [PLN-2-67, (3Z,6Z)-3-(3-Fluorophenyl)methylene-6-((5-isopropyl-1-(3-morpholinyl)-2-methylpropylimidazol-4-yl)methylene)piperazine-2,5-dione]
IC50 [1, 5]: 3.73 ± 0.06 nM | IC50 [2, 6]: 8.39 ± 0.58 nM | IC50 [3, 7]: 7.7 ± 0.04 nM

CC(C)=CC(=O)N1CCN(CCCn2cnc(/C=c3\[nH]c(=O)/c(=C/c4cccc(C(=O)c5ccc(F)cc5)c4)[nH]c3=O)c2C(C)C)CC1 [PLN-2-40, (3Z,6Z)-3-(3-(p-fluorobenzoyl)phenyl)methylene-6-((5-isopropyl-1-(3-N-(3,3-dimethyl)acryloylpiperazinyl)propylimidazol-4-yl)methylene)piperazine-2,5-dione]
IC50 [1, 5]: 4.4 ± 3.1 nM | IC50 [2, 6]: 7.56 ± 0.33 nM

CC(C)c1c(/C=c2\[nH]c(=O)/c(=C/c3cccc(C(=O)c4ccc(F)cc4)c3)[nH]c2=O)ncn1CCCN1CCN(Cc2ccc(B3OC(C)(C)C(C)(C)O3)cc2)CC1 [PLN-2-27, (3Z,6Z)-3-(3-(p-fluorobenzoyl)phenyl)methylene-6-((5-isopropyl-1-(3-N-(4-(4,4,5,5-tetramethyl-1,3,2-dioxaborolan-2-yl))benzylpiperazinyl)propylimidazol-4-yl)methylene)piperazine-2,5-dione]
IC50 [1, 5]: 17.9 ± 5.9 nM | IC50 [2, 6]: 23.9 ± 4.76 nM

CC(C)c1c(/C=c2\[nH]c(=O)/c(=C/c3cccc(C(=O)c4ccc(F)cc4)c3)[nH]c2=O)ncn1CCCN1CCN(C(=O)NC2CCCC2)CC1 [PLN-2-46, (3Z,6Z)-3-(3-(p-fluorobenzoyl)phenyl)methylene-6-((5-isopropyl-1-(3-N-cyclopentylaminocarbonylpiperazinyl)propylimidazol-4-yl)methylene)piperazine-2,5-dione]
IC50 [1, 5]: 9.09 ± 0.89 nM | IC50 [2, 6]: 21.6 ± 0.52 nM

CCC(=O)N1CCN(CCCn2cnc(/C=c3\[nH]c(=O)/c(=C/c4cccc(F)c4)[nH]c3=O)c2C(C)C)CC1 [PLN-2-65, (3Z,6Z)-3-(3-Fluorophenyl)methylene-6-(5-isopropyl-1-(3-(4-(propionyl)piperazinyl)propylimidazol-4-yl)methylene)piperazine-2,5-dione]
IC50 [1, 5]: 10.3 ± 2.18 nM | IC50 [2, 6]: 17.4 ± 1.45 nM | IC50 [3, 7]: 20.9 ± 0.97 nM

CC(C)c1c(/C=c2\[nH]c(=O)/c(=C/c3cc(F)ccc3F)[nH]c2=O)ncn1CCCN1CCNCC1 [PLN-2-20, (3Z,6Z)-3-(2,5-difluorophenyl)methylene-6-((5-isopropyl-1-(3-piperazinyl)propylimidazol-4-yl)methylene)piperazine-2,5-dione]
IC50 [1, 5]: 91.63 ± 0.62 nM | IC50 [2, 6]: 147 ± 14.5 nM

CC(C)c1c(/C=c2\[nH]c(=O)/c(=C/c3ccc(F)c(F)c3)[nH]c2=O)ncn1CCCN1CCOCC1 [PLN-2-63-2, (3Z,6Z)-3-(3,4-Difluorophenyl)methylene-6-((5-isopropyl-1-(3-morpholinyl)propylimidazol-4-yl)methylene)piperazine-2,5-dione, mesylate]
IC50 [1, 8]: 50.9 ± 6.75 nM | IC50 ([2]; 72 hours of drug treatment, MTT, mesylate, read-out: IC50 (nM) NCI-H460): 95.9 ± 3.66 nM | IC50 [3, 8]: 69.5 ± 4.26 nM

CC(C)c1c(/C=c2\[nH]c(=O)/c(=C/c3cccc(Oc4ccc(F)cc4)c3)[nH]c2=O)ncn1CCCN1CCN(C)CC1 [PLN-2-22, (3Z,6Z)-3-(3-(p-fluorophenoxy)phenyl)methylene-6-((5-isopropyl-1-(3-N-methylpiperazinyl)propylimidazol-4-yl)methylene)piperazine-2,5-dione]
IC50 [1, 5]: 66.2 ± 1.45 nM | IC50 [2, 6]: 85.7 ± 10.6 nM

CC(C)c1c(/C=c2\[nH]c(=O)/c(=C/c3cccc(C(=O)c4ccc(F)cc4)c3)[nH]c2=O)ncn1CCCN1CCN(C(=O)OCc2ccc(B3OC(C)(C)C(C)(C)O3)cc2)CC1 [PLN-2-28, (3Z,6Z)-3-(3-(p-fluorobenzoyl)phenyl)methylene-6-((5-isopropyl-1-(3-N-p-(4,4,5,5-tetramethyl-1,3,2-dioxaborolan-2-yl)benzyloxycarbonylpiperazinyl)propylimidazol-4-yl)methylene)piperazine-2,5-dione]
IC50 ([1]; Homo sapiens, BXPC-3, 72 h): 9.22 ± 3.93 nM | IC50 [2, 9]: 15.4 ± 1.68 nM

CC(C)c1c(/C=c2\[nH]c(=O)/c(=C/c3cc(F)ccc3F)[nH]c2=O)ncn1CCCN1CCN(C(=O)OC(C)(C)C)CC1 [PLN-2-48]
IC50 [1, 5]: 33.1 ± 0.98 nM | IC50 [2, 6]: 39.2 ± 1.85 nM

CC(C)C(=O)N1CCN(CCCn2cnc(/C=c3\[nH]c(=O)/c(=C/c4cccc(C(=O)c5ccc(F)cc5)c4)[nH]c3=O)c2C(C)C)CC1 [PLN-2-32, (3Z,6Z)-3-(3-(p-fluorobenzoyl)phenyl)methylene-6-((5-isopropyl-1-(3-N-isobutyrylpiperazinyl)propylimidazol-4-yl)methylene)piperazine-2,5-dione]
IC50 [1, 5]: 4.16 ± 0.78 nM | IC50 [2, 6]: 7.95 ± 1.29 nM

CC(C)c1c(/C=c2\[nH]c(=O)/c(=C/c3cccc(C(=O)c4ccc(F)cc4)c3)[nH]c2=O)ncn1CCCN1CCN(C(=O)C(C)(C)C)CC1 [PLN-2-33, (3Z,6Z)-3-(3-(p-fluorobenzoyl)phenyl)methylene-6-((5-isopropyl-1-(3-N-tert-butyrylpiperazinyl)propylimidazol-4-yl)methylene)piperazine-2,5-dione]
IC50 ([1]; Homo sapiens, BXPC-3, 72 h): 6.39 ± 2.51 nM | IC50 [2, 9]: 9.91 ± 2 nM

CC(C)c1c(/C=c2\[nH]c(=O)/c(=C/c3cc(F)ccc3F)[nH]c2=O)ncn1CCCN1CCN(C)CC1 [PLN-2-24]
IC50 [1, 5]: 13.19 ± 0.07 nM | IC50 [2, 6]: 28.6 ± 1.4 nM

CCCC(=O)N1CCN(CCCn2cnc(/C=c3\[nH]c(=O)/c(=C/c4cccc(F)c4)[nH]c3=O)c2C(C)C)CC1 [PLN-2-66, (3Z,6Z)-3-(3-Fluorophenyl)methylene-6-(5-isopropyl-1-(3-(4-(n-butyryl)piperazinyl)propylimidazol-4-yl)methylene)piperazine-2,5-dione]
IC50 ([1]; Homo sapiens, BXPC-3, 72 h): 30.4 ± 0.35 nM | IC50 [2, 9]: 40.3 ± 3.72 nM | IC50 ([3]; Homo sapiens, HCCLM3, 72 h): 43.9 ± 7.94 nM

CC(C)c1c(/C=c2\[nH]c(=O)/c(=C/c3cccc(C(=O)c4ccc(F)cc4)c3)[nH]c2=O)ncn1CCCN1CCN(C=O)CC1 [PLN-2-29, (3Z,6Z)-3-(3-(p-fluorobenzoyl)phenyl)methylene-6-((5-isopropyl-1-(3-N-formylpiperazinyl)propylimidazol-4-yl)methylene)piperazine-2,5-dione]
IC50 [1, 5]: 1.4 ± 0.04 nM | IC50 [2, 6]: 3.46 ± 0.25 nM

CC1CN(CCCn2cnc(/C=c3\[nH]c(=O)/c(=C/c4cccc(C(=O)c5ccc(F)cc5)c4)[nH]c3=O)c2C(C)C)CC(C)O1 (stereo not drawn) [PLN-2-12, (3Z,6Z)-3-(3-(p-fluorobenzoyl)phenyl)methylene-6-((5-isopropyl-1-((2,6-dimethyl)-3-morpholinyl)propylimidazol-4-yl)methylene)piperazine-2,5-dione]
IC50 ([1]; 72 hours of drug treatment, MTT): 2.48 ± 2.12 nM | IC50 ([2]; 72 hours of drug treatment, MTT, read-out: IC50 (nM) NCI-H460): 3.77 ± 0.62 nM
